# Reference: ChEMBL document CHEMBL1201862, “PubChem BioAssay data set” (2004)
# Calls of active or inactive are those of the source.
# Legend:
# [1] = molecular target: Serine/threonine-protein phosphatase PP1-alpha catalytic subunit (Homo sapiens, UniProt P62136); experiment: PP1 phosphatase inhibitors, dose response, biochemical, fluorescence (AID 2394)
# [2] = molecular target: Serine/threonine-protein phosphatase (Homo sapiens, UniProt Q9BPW0); experiment: PP5 phosphatase inhibitors, dose response, biochemical, fluorescence (AID 2395)
# [3] = AlphaScreen signal interference compounds, dose response, artefact control for ARNT-TACC3 interaction inhibitor project, biochemical, luminescence, cherry-pick (AID 651705); assay type: functional;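 further: AlphaScreen bead proximity signal that flags compounds interfering with the detection technology; potency reflects signal decrease which marks the compound as an assay artifact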
# [4] = molecular target: Lysine-specific demethylase 4C (Homo sapiens, UniProt Q9H3R0); experiment: GASC-1 (JMJD2C) histone demethylase inhibitors, dose response, biochemical, DELFIA europium, cherry-picked samples (AID 488835); assay type: functional
# [5] = molecular target: UDP-galactopyranose mutase (Mycobacterium tuberculosis, UniProt P9WIQ1); experiment: Inhibitors of Mycobacterium tuberculosis UDP-galactopyranose mutase (UGM) enzyme Measured in Biochemical System Using Plate Reader - 2105-02_Inhibitor_Dose_CherryPick_Activity. [Related pubchem assays (depositor defined):AID504439]
# UDP-galactopyranose mutase, sequence (P9WIQ1 whole entry): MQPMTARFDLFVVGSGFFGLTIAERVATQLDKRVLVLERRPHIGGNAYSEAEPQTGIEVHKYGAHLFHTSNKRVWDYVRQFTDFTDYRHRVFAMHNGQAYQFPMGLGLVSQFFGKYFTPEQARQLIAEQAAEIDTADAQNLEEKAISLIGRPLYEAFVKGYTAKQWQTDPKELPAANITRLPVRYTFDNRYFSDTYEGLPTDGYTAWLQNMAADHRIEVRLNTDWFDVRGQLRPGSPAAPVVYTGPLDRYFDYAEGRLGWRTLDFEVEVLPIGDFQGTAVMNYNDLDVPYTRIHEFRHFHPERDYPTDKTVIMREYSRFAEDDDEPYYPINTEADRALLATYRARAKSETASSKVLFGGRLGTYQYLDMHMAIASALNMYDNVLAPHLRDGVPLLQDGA
# [6] = molecular target: Beta-lactamase (Pseudomonas aeruginosa, UniProt Q79MP6);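 further: biochemical dose-response test of metallo-beta-lactamase enzyme inhibition, read out by epi-absorbance; purified recombinant IMP-1 metallo-beta-lactamase with nitrocefin as substrate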
# Beta-lactamase (Pseudomonas aeruginosa, UniProt Q79MP6), sequence (Q79MP6 whole entry): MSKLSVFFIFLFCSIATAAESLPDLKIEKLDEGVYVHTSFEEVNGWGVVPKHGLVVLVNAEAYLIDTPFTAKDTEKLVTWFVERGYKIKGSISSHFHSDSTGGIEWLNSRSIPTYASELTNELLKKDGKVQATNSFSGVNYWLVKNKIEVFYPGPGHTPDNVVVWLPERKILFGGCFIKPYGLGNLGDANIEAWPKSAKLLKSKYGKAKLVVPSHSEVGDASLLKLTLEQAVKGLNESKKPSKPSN
# [7] = molecular target: Beta-lactamase (Salmonella choleraesuis (strain SC-B67), UniProt Q5J463)
# [8] = molecular target: Keap1/Nrf2 (Homo sapiens, UniProt Q14145); experiment: Keap1-Nrf2 protein-protein interaction inhibitors, dose response, biochemical, fluorescence polarization, cherry-picked samples (AID 588683)
# [9] = molecular target: ORF 73 (Human herpesvirus 8, UniProt O40947); experiment: inhibitors of C-LANA binding to LBS DNA, dose response, biochemical, fluorescence polarization, cherry-picked samples (AID 504725); design: species or system Human gammaherpesvirus 8;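 further: fluorescence polarization of a labeled DNA duplex reporting LANA DNA binding; potency is for inhibitors that block LANA binding to the DNA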
# ORF 73, sequence (O40947 whole entry): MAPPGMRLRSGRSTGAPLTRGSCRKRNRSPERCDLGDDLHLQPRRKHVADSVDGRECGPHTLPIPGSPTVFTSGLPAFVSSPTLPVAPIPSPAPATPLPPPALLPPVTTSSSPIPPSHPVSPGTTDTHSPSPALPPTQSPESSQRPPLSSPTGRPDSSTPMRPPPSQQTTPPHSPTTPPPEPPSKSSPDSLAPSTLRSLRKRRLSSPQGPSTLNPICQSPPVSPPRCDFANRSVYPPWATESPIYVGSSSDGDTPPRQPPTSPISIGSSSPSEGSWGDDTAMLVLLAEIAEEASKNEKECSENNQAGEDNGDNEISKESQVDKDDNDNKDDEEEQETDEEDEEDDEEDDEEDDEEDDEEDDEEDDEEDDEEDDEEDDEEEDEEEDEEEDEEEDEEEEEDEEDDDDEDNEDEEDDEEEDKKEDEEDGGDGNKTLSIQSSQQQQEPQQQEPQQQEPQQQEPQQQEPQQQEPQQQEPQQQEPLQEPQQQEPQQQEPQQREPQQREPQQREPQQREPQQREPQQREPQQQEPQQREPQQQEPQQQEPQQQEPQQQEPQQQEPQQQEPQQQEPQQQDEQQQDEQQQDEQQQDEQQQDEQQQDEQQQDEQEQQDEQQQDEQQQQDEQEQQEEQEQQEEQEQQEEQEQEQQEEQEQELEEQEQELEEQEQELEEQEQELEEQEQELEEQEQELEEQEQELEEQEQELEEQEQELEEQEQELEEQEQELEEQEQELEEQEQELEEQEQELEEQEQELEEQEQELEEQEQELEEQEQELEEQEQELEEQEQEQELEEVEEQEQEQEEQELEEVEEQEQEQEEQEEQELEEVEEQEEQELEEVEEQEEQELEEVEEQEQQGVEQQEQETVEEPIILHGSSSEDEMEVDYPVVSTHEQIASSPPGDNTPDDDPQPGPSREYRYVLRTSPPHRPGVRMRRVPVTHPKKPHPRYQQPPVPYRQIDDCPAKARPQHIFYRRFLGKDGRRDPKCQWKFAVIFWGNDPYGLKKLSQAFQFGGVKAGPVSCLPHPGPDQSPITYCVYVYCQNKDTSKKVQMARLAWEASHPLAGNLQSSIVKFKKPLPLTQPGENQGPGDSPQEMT
# [10] = molecular target: DNA (cytosine-5)-methyltransferase 1 (Homo sapiens, UniProt P26358); experiment: DNMT1 methyltransferase inhibitors, confirmation, biochemical, fluorescent molecular beacon (AID 602386); assay type: functional
# [11] = molecular target: T1, Voltage-gated N-type calcium channel alpha-1B subunit/Amyloid beta A4 precursor protein-binding family A member 1 (Homo sapiens, UniProt Q00975+Q02410); assay type: protein assay
# T1 sequence (Q00975 whole entry): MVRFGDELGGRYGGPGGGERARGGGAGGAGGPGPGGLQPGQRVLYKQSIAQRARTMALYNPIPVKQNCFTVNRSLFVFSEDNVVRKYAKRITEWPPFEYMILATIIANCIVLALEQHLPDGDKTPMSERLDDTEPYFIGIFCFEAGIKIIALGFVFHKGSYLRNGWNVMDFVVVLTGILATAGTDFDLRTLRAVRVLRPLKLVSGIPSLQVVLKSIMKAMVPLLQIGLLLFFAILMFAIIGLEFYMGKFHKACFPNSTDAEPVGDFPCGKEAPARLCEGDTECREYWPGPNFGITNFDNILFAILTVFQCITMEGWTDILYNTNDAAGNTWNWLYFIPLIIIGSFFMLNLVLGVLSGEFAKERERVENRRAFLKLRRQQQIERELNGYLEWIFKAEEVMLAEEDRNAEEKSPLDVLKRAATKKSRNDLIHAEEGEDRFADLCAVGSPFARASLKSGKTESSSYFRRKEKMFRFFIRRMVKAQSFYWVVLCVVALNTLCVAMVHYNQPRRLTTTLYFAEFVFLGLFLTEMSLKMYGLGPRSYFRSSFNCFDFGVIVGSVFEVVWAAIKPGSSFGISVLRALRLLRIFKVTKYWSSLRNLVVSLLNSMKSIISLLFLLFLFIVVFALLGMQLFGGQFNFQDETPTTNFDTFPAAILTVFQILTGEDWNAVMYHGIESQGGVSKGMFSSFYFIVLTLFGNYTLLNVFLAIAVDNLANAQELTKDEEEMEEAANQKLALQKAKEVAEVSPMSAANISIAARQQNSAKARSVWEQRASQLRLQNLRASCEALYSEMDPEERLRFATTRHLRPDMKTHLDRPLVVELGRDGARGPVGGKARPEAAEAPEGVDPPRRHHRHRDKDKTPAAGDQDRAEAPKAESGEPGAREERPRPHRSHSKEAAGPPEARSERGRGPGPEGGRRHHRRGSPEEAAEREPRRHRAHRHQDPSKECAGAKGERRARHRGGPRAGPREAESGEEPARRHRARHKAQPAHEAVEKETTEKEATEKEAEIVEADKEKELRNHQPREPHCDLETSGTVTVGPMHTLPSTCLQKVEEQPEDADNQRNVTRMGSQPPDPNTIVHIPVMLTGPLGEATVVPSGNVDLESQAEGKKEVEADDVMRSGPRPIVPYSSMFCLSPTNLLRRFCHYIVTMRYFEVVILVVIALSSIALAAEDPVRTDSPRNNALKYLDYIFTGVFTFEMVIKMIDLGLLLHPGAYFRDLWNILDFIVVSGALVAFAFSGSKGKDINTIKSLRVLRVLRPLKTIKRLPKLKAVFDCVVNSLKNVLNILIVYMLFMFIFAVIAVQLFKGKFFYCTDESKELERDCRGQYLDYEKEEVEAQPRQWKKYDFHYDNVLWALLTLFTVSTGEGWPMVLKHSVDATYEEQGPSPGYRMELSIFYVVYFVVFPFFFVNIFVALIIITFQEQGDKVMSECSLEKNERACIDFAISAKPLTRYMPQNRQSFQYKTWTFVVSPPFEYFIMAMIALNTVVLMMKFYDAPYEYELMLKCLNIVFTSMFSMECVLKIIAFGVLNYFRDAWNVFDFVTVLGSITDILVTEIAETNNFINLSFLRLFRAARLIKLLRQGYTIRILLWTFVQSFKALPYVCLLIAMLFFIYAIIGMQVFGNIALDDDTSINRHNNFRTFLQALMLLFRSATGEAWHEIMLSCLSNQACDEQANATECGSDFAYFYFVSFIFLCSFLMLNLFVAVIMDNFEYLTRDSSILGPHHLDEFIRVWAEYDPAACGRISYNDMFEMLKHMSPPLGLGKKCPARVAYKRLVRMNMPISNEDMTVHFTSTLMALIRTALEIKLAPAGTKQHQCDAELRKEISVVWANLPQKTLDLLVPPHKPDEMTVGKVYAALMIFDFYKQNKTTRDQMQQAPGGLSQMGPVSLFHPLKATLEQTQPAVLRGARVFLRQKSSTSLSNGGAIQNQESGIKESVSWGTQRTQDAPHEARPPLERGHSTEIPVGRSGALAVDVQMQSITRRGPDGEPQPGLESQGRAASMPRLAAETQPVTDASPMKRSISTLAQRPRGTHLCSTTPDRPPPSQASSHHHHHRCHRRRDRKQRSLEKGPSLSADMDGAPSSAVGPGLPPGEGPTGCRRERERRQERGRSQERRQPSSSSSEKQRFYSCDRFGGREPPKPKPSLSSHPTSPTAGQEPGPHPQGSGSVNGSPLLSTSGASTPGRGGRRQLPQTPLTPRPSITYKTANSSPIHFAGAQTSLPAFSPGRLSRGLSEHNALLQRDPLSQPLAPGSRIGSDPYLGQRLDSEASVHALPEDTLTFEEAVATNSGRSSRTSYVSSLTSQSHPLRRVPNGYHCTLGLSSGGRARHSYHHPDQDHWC
# T1 sequence (Q02410 whole entry): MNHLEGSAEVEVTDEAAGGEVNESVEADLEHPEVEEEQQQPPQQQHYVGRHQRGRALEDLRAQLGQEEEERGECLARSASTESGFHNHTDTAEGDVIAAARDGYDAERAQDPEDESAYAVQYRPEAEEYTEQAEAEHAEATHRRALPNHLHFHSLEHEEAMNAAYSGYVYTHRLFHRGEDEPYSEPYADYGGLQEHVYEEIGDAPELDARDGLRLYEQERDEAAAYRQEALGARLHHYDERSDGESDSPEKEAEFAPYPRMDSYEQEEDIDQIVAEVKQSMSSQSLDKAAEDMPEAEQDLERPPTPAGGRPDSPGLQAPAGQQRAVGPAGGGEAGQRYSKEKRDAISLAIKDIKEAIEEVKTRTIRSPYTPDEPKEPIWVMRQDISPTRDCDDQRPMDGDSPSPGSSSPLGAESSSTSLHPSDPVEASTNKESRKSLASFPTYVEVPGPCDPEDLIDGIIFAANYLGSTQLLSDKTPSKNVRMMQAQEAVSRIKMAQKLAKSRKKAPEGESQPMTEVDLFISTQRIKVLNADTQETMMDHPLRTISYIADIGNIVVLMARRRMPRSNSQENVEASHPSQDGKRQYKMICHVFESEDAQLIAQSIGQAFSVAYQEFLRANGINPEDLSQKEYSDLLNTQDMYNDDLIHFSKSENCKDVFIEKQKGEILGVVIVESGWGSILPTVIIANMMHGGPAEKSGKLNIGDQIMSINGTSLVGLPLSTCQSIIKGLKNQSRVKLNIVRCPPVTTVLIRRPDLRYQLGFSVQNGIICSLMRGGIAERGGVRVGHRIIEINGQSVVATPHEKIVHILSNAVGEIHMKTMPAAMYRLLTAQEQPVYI
# [12] = molecular target: T1, Voltage-gated N-type calcium channel alpha-1B subunit/Amyloid beta A4 precursor protein-binding family A member 1; assay type: protein assay; remark: listed apart in the source
# [13] = molecular target: Transitional endoplasmic reticulum ATPase (Homo sapiens, UniProt P55072); experiment: p97 ATPase inhibitors, dose response, biochemical (AID 1534)
# [14] = molecular target: SUMO E1/E2 (Homo sapiens, UniProt P63279+Q9UBE0+Q9UBT2); experiment: SAR analysis of SUMOylation using HTRF in an in-Vitro dose response assay. [Related pubchem assays (depositor defined):AID2006, AID2011, AID2018, AID2069, AID2658]; assay type: functional
# [15] = molecular target: T2, Aminopeptidase N (Plasmodium falciparum FcB1/Columbia, UniProt O96935); experiment: P. falciparum M1AAP inhibitors, biochemical, fluorogenic H-Leu-NHMec substrate, 1536-well (AID 1445); design: species or system Plasmodium falciparum 3D7, 3D7
# T2 sequence (O96935 whole entry): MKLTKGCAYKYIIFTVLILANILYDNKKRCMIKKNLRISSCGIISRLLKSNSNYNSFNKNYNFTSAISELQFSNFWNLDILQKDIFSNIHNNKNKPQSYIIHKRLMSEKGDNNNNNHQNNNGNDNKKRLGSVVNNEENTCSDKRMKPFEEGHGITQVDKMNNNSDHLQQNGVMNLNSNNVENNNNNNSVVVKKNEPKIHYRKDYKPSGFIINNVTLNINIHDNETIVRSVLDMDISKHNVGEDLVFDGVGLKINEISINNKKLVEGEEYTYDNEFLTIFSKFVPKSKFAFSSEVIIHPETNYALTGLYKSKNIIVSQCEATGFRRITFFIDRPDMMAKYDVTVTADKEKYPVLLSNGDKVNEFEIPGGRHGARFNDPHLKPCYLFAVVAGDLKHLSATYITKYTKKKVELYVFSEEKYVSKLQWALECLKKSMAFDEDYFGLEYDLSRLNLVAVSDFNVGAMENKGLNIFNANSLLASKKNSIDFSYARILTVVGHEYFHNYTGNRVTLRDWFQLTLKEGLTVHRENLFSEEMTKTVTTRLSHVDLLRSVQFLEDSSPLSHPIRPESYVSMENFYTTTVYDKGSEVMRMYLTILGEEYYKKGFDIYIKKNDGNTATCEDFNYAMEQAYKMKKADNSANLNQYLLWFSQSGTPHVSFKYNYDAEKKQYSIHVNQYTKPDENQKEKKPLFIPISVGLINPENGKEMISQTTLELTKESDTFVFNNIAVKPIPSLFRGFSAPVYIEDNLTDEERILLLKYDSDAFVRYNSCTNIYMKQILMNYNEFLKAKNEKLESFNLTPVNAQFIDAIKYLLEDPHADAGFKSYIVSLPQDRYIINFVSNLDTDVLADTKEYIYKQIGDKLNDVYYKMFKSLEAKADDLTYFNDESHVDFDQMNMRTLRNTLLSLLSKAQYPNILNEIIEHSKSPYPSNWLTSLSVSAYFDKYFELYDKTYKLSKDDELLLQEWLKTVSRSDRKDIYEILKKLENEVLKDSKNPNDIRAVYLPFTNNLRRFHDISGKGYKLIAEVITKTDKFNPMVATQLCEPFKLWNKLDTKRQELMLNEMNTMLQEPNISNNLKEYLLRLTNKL
# [16] = molecular target: Transitional endoplasmic reticulum ATPase (Homo sapiens, UniProt P55072, C522A); experiment: C522A mutant p97 ATPase inhibitors, dose response, counter-screen for p97 inhibitor project, biochemical, luminescence (AID 1544)
# [17] = molecular target: Genome polyprotein (dengue virus type 2, UniProt P29990); experiment: Dengue-2 NS5 methyltransferase inhibitors, primary screen, biochemical, confirmation dose response (AID 588689); assay type: functional
# [18] = molecular target: T3, Caspase-6 (Homo sapiens, UniProt P55212); experiment: human caspase-6 inhibitors, dose response, biochemical, VEID-R110 fluorescence, cherry-pick (AID 720632)
# T3 sequence (P55212 whole entry): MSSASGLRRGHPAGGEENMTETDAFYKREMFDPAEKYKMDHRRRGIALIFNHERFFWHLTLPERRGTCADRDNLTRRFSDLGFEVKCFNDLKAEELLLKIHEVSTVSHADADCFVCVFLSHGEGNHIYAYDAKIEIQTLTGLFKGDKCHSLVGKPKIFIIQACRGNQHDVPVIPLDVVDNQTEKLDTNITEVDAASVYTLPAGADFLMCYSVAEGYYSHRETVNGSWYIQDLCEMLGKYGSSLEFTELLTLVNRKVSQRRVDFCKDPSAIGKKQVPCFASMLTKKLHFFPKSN
# [19] = molecular target: Induced myeloid leukemia cell differentiation protein Mcl-1 (Homo sapiens, UniProt Q07820); assay type: functional
# [20] = molecular target: T4, Histone-lysine N-methyltransferase NSD2 (Homo sapiens, UniProt O96028); assay type: biochemical
# T4 sequence (O96028 whole entry): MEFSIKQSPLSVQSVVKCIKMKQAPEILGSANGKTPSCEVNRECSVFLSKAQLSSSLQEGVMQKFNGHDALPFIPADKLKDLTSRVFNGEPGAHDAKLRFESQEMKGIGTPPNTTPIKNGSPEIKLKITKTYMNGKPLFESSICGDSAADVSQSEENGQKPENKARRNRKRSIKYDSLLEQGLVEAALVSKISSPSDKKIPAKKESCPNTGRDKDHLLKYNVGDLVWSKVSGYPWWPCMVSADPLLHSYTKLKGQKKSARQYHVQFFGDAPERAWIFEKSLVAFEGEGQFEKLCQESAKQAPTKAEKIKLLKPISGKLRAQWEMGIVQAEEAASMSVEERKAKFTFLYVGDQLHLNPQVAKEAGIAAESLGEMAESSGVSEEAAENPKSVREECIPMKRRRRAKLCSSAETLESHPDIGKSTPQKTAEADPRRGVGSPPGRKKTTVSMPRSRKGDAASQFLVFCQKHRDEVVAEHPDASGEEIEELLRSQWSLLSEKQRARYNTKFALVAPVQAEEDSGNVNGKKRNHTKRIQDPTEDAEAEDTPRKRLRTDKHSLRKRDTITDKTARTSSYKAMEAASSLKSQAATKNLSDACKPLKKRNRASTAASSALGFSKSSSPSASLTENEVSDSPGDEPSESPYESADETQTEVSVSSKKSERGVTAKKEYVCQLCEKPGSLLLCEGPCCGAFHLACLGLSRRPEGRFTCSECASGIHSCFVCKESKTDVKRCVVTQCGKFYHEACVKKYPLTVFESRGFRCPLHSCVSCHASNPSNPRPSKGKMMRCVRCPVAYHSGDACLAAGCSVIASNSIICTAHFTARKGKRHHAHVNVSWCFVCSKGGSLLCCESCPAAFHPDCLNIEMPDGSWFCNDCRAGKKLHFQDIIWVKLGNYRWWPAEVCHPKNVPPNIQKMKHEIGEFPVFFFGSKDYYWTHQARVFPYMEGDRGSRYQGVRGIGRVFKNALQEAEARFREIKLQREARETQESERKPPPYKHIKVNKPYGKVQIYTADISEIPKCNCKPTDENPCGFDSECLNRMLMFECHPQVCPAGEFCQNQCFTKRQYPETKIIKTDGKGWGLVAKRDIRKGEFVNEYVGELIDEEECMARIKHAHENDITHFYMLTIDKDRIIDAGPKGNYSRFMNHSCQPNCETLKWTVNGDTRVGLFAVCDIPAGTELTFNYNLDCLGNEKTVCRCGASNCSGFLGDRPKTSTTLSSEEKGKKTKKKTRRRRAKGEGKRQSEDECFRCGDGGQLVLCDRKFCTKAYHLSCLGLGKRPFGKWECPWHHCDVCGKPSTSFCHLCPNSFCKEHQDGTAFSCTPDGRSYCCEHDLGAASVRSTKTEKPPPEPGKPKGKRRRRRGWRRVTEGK
# [21] = molecular target: T5, SUMO-activating enzyme (Homo sapiens, UniProt Q9UBT2); experiment: inhibitors of in vitro SUMOylation cascade, primary screen, biochemical, HTRF, uHTS (AID 2006); assay type: protein-complex assay
# [22] = molecular target: T5, SUMO-activating enzyme; experiment: SUMOylation inhibitor hit validation, confirmation, SUMOylation inhibitor project, biochemical, AlphaScreen (AID 2018); assay type: functional
# [23] = Luminescence Cell-Based Dose Response Follow up to Identify Inhibitors of Platelet Dense Granule Release. [Related pubchem assays (depositor defined):AID1663, AID1678, AID1889, AID2519]; assay type: functional
# [24] = SFLLRN-induced P-Selectin Platelet Surface Expression Measured in Cell-Based System Using Flow Cytometry - 2016-03_Inhibitor_Dose_DryPowder_Activity_Set3. [Related pubchem assays (depositor defined):AID1678]; assay type: functional
# [25] = molecular target: T6, Mannose-6-phosphate isomerase (Homo sapiens, UniProt P34949); experiment: PMI enzyme inhibitors, confirmation, biochemical, fluorescence intensity (AID 1535)
# T6 sequence (P34949 whole entry): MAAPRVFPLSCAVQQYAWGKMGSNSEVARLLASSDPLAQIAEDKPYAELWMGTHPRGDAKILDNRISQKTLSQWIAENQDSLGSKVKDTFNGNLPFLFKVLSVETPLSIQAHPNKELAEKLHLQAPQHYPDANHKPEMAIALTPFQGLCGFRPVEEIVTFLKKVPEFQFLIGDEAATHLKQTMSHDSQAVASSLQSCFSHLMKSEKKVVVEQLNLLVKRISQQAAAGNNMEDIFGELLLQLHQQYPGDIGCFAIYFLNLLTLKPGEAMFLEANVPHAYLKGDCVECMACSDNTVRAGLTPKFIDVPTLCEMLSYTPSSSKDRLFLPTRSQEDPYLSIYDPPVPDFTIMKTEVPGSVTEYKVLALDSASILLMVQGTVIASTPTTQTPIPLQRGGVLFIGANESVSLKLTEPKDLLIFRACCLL
# [26] = growth induction of Burl-1 ts yeast mutant, dose response, counter-screen for SUMOylation pathway inhibitor project, whole organism, S. cerevisiae, luminescence (AID 463199); assay type: functional
# [27] = inhibitors of Trypanosoma cruzi host-cell infection, confirmation, beta-gal luminescence, NIH3T3 host cells (AID 2630); assay type: functional, cell-based; settings: Mus musculus
smiles,measurement,setting,value
O=[N+]([O-])c1ccc(O)c(-c2nn[nH]n2)c1,IC50,[1],> 67 µM (not active)
same,IC50,[2],44.5 µM (not active)
same,AC50,[3],121 µM (active)
same,AC50,[4],4.74 µM (active)
Nc1cccc(N2C(=O)c3cccc4c(N)ccc(c34)C2=O)c1,AC50,[5],3.13 µM (active)
same,IC50,[6],31 µM (inactive)
same,IC50,[7],16.8 µM (inactive)
same,AC50,[8],4.29 µM (active)
same,AC50,[9],6.98 µM (active)
O=C(O)c1ccc(NS(=O)(=O)c2ccc3c(c2)C2C=CCC2C(c2ccccc2F)N3)cc1 (stereo not drawn),IC50,[10],10.1 µM (active)
same,IC50,[11],> 50 µM (inactive)
same,IC50,[12],> 56.8 µM (not active)
same,IC50,[13],19 µM (not active)
same,IC50,[14],35.3 µM (active)
same,IC50,[15],2.75 µM (active)
same,IC50,[16],> 50 µM (not active)
same,IC50,[17],62.3 µM (active)
same,AC50,[18],13.7 µM (active)
same,IC50,[19],2.58 µM (active)
same,AC50,[20],10.2 µM (active)
same,IC50,[21],19.5 µM (active)
same,AC50,[9],109 µM (active)
same,IC50,[22],4.63 µM (active)
CC(=O)Nc1cccc(NC(=O)c2ccccc2Cl)c1,EC50,[23],147 µM (active)
same,AC50,[24],53.9 µM (active)
O=c1c2ccccc2[nH]n1-c1ccccc1,IC50,[25],44.9 µM (active)
CSc1ccc(Cl)c(C(=O)Nc2ccc(N3CCOCC3)cc2)c1,AC50,[26],57.3 µM (active)
Cn1cc(CN2CCCC(C(=O)c3ccc(C(C)(C)C)cc3)C2)cn1 (stereo not drawn),EC50,[27],1.25 µM (active)
